Literature values, collected in paper PMC8146789, “20-Hydroxyecdysone, from Plant Extracts to Clinical Use: Therapeutic Potential for the Treatment of Neuromuscular, Cardio-Metabolic and Respiratory Diseases” (Biomedicines, 2021).
Read-outs that look alike come from different tables or passages of the source.

Experiments:
[1] = tested on: myostatin gene expression in C2C12 cells; settings: cited from earlier work
rats [2] = tested on: rats; design: method as in ref [121] = [121]; 121. Ogawa S. Nishimoto N. Matsuda H. Pharmacology of ecdysones un vertebrates Invertebrate Endocrinology and Hormonal Heterophylly Burdette W.J. Springer Berlin, Germany 1974 341 344; settings: ref [121]; cited from earlier work
rats [3] = settings: long-term feeding 0.2–2 g/kg/day, ref [121]; cited from earlier work
mice = settings: ref Ogawa et al. [121], cited from earlier work
Erβ = tested on: Erβ; design: method as in PMID 24974955; settings: ref [54]; cited from earlier work
ERα = tested on: ERα; design: method as in PMID 24974955; settings: ref [54]; cited from earlier work
C2C12 myotubes = tested on: C2C12 myotubes; design: method as in PMID 24974955; settings: E2 1 nM; ref [54]; cited from earlier work
[4] = rat, in vivo, po; cited from earlier work
[5] = design: method as in PMID 5719028, PMID 30428419; settings: ref [154],[155]; cited from earlier work
[6] = design: method as in PMID 3355591, PMID 2906596; settings: mice, i.p., ref [123],[125], cited from earlier work
[7] = humans, ref [132], cited from earlier work
[8] = sheep, ingested; ref [132]; cited from earlier work

D-Pro^7-Ang(1-7)
effect on the inhibition of myostatin gene expression by 20E ([1]; C2C12 cells, ref [113]): effective at preventing the inhibition brought about by 20E | effect on the inhibition of myostatin gene expression by Ang(1-7) ([1]; C2C12 cells, ref [113]): abolished

D-Ala^7-Ang(1-7)
effect on the inhibition of myostatin gene expression by 20E ([1]; C2C12 cells, ref [113]): effective at preventing the inhibition brought about by 20E | effect on the inhibition of myostatin gene expression by Ang(1-7) ([1]; C2C12 cells, ref [113]): abolished

Angiotensin(1-7): natural ligand for the GPCR Mas1 (DRVYIHP; Angiotensin 1-7; UniProt P01019 25-31, looked up)
myostatin gene expression ([1]; C2C12 cells, ref [113]): partially inhibits myostatin gene expression

C[C@]12CC[C@@H]3c4ccc(O)cc4C(=NOCC(=O)O)C[C@H]3[C@@H]1CC[C@@H]2O [E2-CMO, estradiol 6-carboxymethyloxime]
myostatin gene expression ([1]; C2C12 cells, ref [113]): inhibit myostatin gene expression in C2C12 cells like E2

C[C@]12CC[C@@H]3c4ccc(O)cc4CC[C@H]3[C@@H]1CC[C@H]2O [17αE2, 17-epi-estradiol]
myostatin gene expression ([1]; C2C12 cells, ref [113]): inhibit myostatin gene expression in C2C12 cells

IGF-1: insulin-like growth factor-1
myostatin gene expression ([1]; C2C12 myotubes, 6 h treatment, ref [103]): markedly reduces myostatin gene expression

CC(CO)CC[C@@H](O)[C@](C)(O)[C@H]1CC[C@@]2(O)C3=CC(=O)[C@@H]4C[C@@H](O)[C@@H](O)C[C@]4(C)[C@H]3CC[C@]12C (stereo partly shown) [inokosterone]
sex hormonal activity, anti-inflammatory or anabolic effects (rats [2]): did not have | subacute toxicity (rats [3]): no subacute toxicity was observed | LD50 (mice; i.p.-injected): 7800 mg/kg | LD50 (mice; ingested): > 9000 mg/kg

C[C@]12CC[C@@H]3c4ccc(O)cc4CC[C@H]3[C@@H]1CC[C@@H]2O [E2, Estradiol, reference compound]
activation of ERE reporter gene (Erβ): could be activated dose dependently | activation of ERE reporter gene (ERα): could be activated dose dependently | myostatin gene expression ([1]; C2C12 cells, ref [113]): inhibit myostatin gene expression in a dose-dependent manner | myotube diameter (C2C12 myotubes): enhanced myotube diameter

CC(=O)[C@H]1CC[C@@]2(O)C3=CC(=O)[C@@H]4C[C@@H](O)[C@@H](O)C[C@]4(C)C3CC[C@]12C (stereo partly shown) [Post, poststerone]
bioavailability [4]: ca. 19% | anabolic activity [5]: seem to retain some anabolic activity

C[C@H]([C@H](O)CCC(C)(C)O)[C@H]1CC[C@@]2(O)C3=CC(=O)[C@@H]4C[C@@H](O)[C@@H](O)C[C@]4(C)[C@H]3CC[C@]12C [E, ecdysone]
time to full excretion of radioactivity ([6]; undiluted radiolabelled ecdysone): ≤ 24 h | time until essentially all radioactivity is located in the intestine [6]: 45 to 60 min | time of plasma titre maximum ([7]; ingested): ca. 30 min | effective half-time of elimination from the blood [7]: 4 h | effective half-time of elimination from the urine [7]: 3.1 h | time of plasma titre maximum [8]: ca. 30 min

C[C@]12C[C@H](O)[C@H](O)C[C@H]1C(=O)C=C1[C@@H]2CC[C@]2(C)C(=O)CC[C@@]12O [rubrosterone]
anabolic activity [5]: seem to retain some anabolic activity
